# Legend:
# [1] = system: ER+ early stage breast cancer; test: Distant relapse risk after adjuvant systemic therapy, multicentre adjuvant therapy cohort stratified by SPAG5 mRNA; type: in vivo, human
# Excerpt: A) Breast Cancer—Assessment Death and Distant Relapse Risks after Surgery and Receiving Adjuvant Systemic Therapy if Eligible in Early Stage Breast Cancer (i.e. Examples 26 to 37, 45, 49, 50, 53, 54 and 57)
# The inventors evaluated the prognostic utility of SPAG5-mRNA expression in a large combined breast cancer (BC) cohort which was sourced from 15 publically-available, global datasets (n=3538) using the following access numbers.
# All the databases had been downloaded and processed. The gene expression data were converted to a common scale (median equal to 0 and standard deviation equal to 1) in order to merge all of the studies data and create combined cohorts. Each sample in the data was standardised to a mean of 0 and standard deviation of 1. Then the data was median centred for each gene whereby median of each gene is 0.
# SPAG5 gene expression data of each database were converted to a common scale (median equal to 0 and standard deviation equal to 1) in order to merge all of the studies data that used the same platform and create combined cohorts. To convert to a common scale each sample in the data was standardised to a mean of 0 and standard deviation of 1. Then the data was median centred for each gene whereby median of each gene is 0. Databases using same platform have been merged and the median expression was calculated. The median expression of SPAG5 transcript for each platform has been calculated and values equal to or higher than the median coded as +1 (overexpression). Values of less than the median have been coded 0 or low SPAG5.
# SPAG5 mRNA = SPAG5 mRNA expression change and clinical response during preoperative endocrine therapy (letrozole); type: in vivo, human
# Excerpt: B) Breast Cancer—Assessment of the Clinical Dynamic Response after Receiving Preoperative Endocrine Therapy (Aromatase Inhibitor) (i.e. Example 38)
# The association between SPAG5 mRNA expression and clinical response after receiving preoperative therapy has been analysed in a total of 101 patients from a consecutive series of 255 postmenopausal women who presented to Western General Hospital in Edinburgh with large primary histologically confirmed estrogen receptor (ER)-rich (Allred scores 6 to 8) invasive breast cancer and who were recruited between 2003 and 2011 fulfilled the requirements to be included in this. All patients gave informed consent and the study was approved by the local regional ethics committee (2001/8/80 and 2001/8/81). Patients were treated with letrozole (Femara, 2.5 mg; Novartis Pharma AG, Basel, Switzerland) daily for at least 3 months. The clinical response was assessed by three-dimensional ultrasound measurements using dynamic (serial) changes in tumor volumes. Tumours with <50% reduction in volume were classified as non-responders. SPAG5 mRNA expression data were retrieved from the publically available gene expression microarray datasets at the National Center for Biotechnology Information Gene Expression Omnibus under access numbers (GSE59515, GSE55374, and GSE20181).
# For “GSE59515” and “GSE55374” cases, RNA was extracted, labelled, and hybridized to HumanHT-12 v4 Illumina BeadChips (GPL10558) according to the standard protocol for NuGEN amplified samples. For GSE20181 cases, samples were processed on Affymetrix U133A gene chip (GPL96). There were no significant differences in clinical or pathologic features of patients or tumours from the three datasets. Illumina and Affymetrix data were independently normalized (quantile using the lumi Bioconductor package2l and the log scale robust multi-array analysis expression measure was implemented with the affy packages) and mapped to Ensembl gene identifiers using re-annotation and mapping for oligonucleotide array technologies and custom chip definition file, respectively, before detection filtering and batch correction with cross-platform normalization. Biopsies were taken from the same subjects at three time-points: pre-treatment, after 10-14 days Letrozol (2.5 mg/day, oral), and after 90 days Letrozol (2.5 mg/day, oral).
SMILES,"distant relapse risk ([1]; ER+ LN+ early stage BC, SPAG5+ mRNA overexpression) [%]","distant relapse risk ([1]; ER+ LN+ early stage BC, low SPAG5 mRNA) [%]","distant relapse risk ([1]; ER+ LN- early stage BC, SPAG5+ mRNA overexpression) [%]","distant relapse risk ([1]; ER+ LN- early stage BC, low SPAG5 mRNA) [%]","cases with SPAG5 mRNA significantly downregulated vs pre-treatment biopsy (SPAG5 mRNA; ER+ tumours, after 2 weeks) [%]","change of SPAG5 mRNA expression vs biopsy after 2 weeks (SPAG5 mRNA; ER+ tumours, after 12 weeks)","change of SPAG5 mRNA expression vs pre-treatment biopsy (SPAG5 mRNA; non-responding tumours, after 2 or 12 weeks)","responding tumours with significant down-regulation of SPAG5 mRNA (SPAG5 mRNA; tumour volume reduced by 50%, after 2 weeks) [%]"
CC/C(=C(\c1ccccc1)c1ccc(OCCN(C)C)cc1)c1ccccc1 [Tamoxifen],46,22,33,13,,,,
"N#Cc1ccc(C(c2ccc(C#N)cc2)n2cncn2)cc1 [pre-operative endocrine therapy, letrozole]",,,,,72,significant further reduction,no significant change,76
